Reference: US10123960B2, “Methods for treating of skin conditions with retinoid double conjugate compounds” (US COSMECEUTECHS LLC, priority 2013, dated 2018)
“Also recorded” adds a separate entry of the source.

System: upper outer arm or back of each subject
Experiment: Maximization assay (human patch test: induction, rest and challenge phases)
Type: in vivo
Design: key to Maximization Testing Results: 72-Hour Grading / Maximization Testing Results: 48-Hour Grading: 0=not sensitized; 1=mild sensitization (viz. erythema and a little edema); 2=moderate sensitization (erythema with infiltration, raised, spreading beyond the borders of the patch, with or without vesiculation); 3=strong sensitization (large vesicula-bullous reaction)
Details: for Maximization Testing Results: 48-Hour Grading: 48 hours after challenge patch; for Maximization Testing Results: 72-Hour Grading: 72 hours after challenge patch
Protocol: A group of 26 subjects were tested to compare the activity of lactic acid retinoate (single conjugate) with ethyl lactate retinoate (double conjugate). As a general protocol, a patch (Webril cotton with 0.05 ml of a 5.0% aqueous solution) was applied to the upper outer arm or back of each subject. The entire test was composed of (1) an induction phase (2) a rest phase and (3) a challenge phase.
The scoring scale was as follows: • 0=not sensitized; • 1=mild sensitization (viz. erythema and a little edema); • 2=moderate sensitization (erythema with infiltration, raised, spreading beyond the borders of the patch, with or without vesiculation); and • 3=strong sensitization (large vesicula-bullous reaction).

[1] = Subject Number 26 (one volunteer)

| SMILES | share of the sample population with a delayed skin irritation reaction presumptive of contact allergy (25 panelists completed) | Maximization Testing Results: 48-Hour Grading (Subject Number 01-24) | Maximization Testing Results: 72-Hour Grading (Subject Number 01-24) | Maximization Testing Results: 48-Hour Grading [1] | Maximization Testing Results: 72-Hour Grading [1] | adverse or unexpected reactions in the panelists (induction phase) | skin irritation at the induction patch (leading to method deviation) (induction phase) | share of the sample population with any skin irritation or allergic reactions (26 subjects) | instances of contact allergy (48 or 72 hours after application of the challenge patches) | Maximization Testing Results: 48-Hour Grading (Subject Number 01-26) | Maximization Testing Results: 72-Hour Grading (Subject Number 01-26) |
| --- | --- | --- | --- | --- | --- | --- | --- | --- | --- | --- | --- |
| CC1=C(/C=C/C(C)=C/C=C/C(C)=C/C(=O)OC(C)C(=O)O)C(C)(C)CCC1 (centres unmarked) [lactyl retinoate, 2-(((2E,4E,6E,8E)-3,7-dimethyl-9-(2,6,6-trimethylcyclohex-1-en-1-yl)nona-2,4,6,8-tetraenoyl)oxy)propanoic acid] | 4% | Subject Number: 01-24, 48-Hour Grading: 0 | Subject Number: 01-24, 72-Hour Grading: 0 | Subject Number: 26, 48-Hour Grading: 1 | persisted at 72 hours (score 2); also recorded: Subject Number: 26, 72-Hour Grading: 2 | No adverse or unexpected reactions were | many subjects had skin irritation sufficient enough to change protocol application |  |  |  |  |
| CCOC(=O)[C@@H](C)OC(=O)/C=C(C)/C=C/C=C(C)/C=C/C1=C(C)CCCC1(C)C [ethyl lactate retinoate] |  |  |  |  |  |  |  | 0% | No instances of contact allergy were recorded | Subject Number: 01-26, 48-Hour Grading: 0 | Subject Number: 01-26, 72-Hour Grading: 0 |
